The values that follow come from patent US7078022B2, “Sunscreen compositions and methods of use thereof” (Avon Products, Inc., priority 2002, dated 2006).

Where a name gives a salt, the structure may show the parent alone.

The nature of series [1]: UV spectrum (UV absorbance, FIG. 1). Type of series: physicochemical. From the text: FIG. 1 is a Ultraviolet (UV) spectrum showing the UV absorbance of 3-[2-(4-diethylaminophenyl)-2-oxoethyl]thiazolium salt.
FIG. 1 provides the UV spectrum for 3-[2-(4-diethylaminophenyl)-2-oxoethyl]thiazolium salt. […] The maximum UV absorption occurs at a wavelength of 350 nm.

Series [2] has as its system skin. In words: Skin elasticity and wrinkling. The conditions noted are these: no method or data given.

As to `CCN(CC)c1ccc(C(=O)C[n+]2ccsc2)cc1` [3-[2-(4-diethylaminophenyl)-2-oxoethyl]thiazolium salt], the “wavelength of maximum UV absorption” value in series [1] is given as 350 nm. The UV absorbing properties entry in series [1] (UV-A range) was “excellent UV absorber, particularly in the UV-A range”. In addition, in series [2], the elasticity of skin result is on record as “improve the elasticity” and the wrinkling of skin entry is “reduce the wrinkling of skin”.
